This passage reports DC50 and Dmax results from patent US11957759B1, “Rapidly accelerated fibrosarcoma (RAF) degrading compounds and associated methods of use” (Arvinas Operations, Inc., priority 2022, dated 2024).

One test has as its target T1, B-RAF G466V (Homo sapiens, UniProt P15056, G466V).
T1 construct: expressed in transfected cells; host or cells: T-Rex 293 cells (Invitrogen #R71007)
The experiment in a line: Target protein degradation, assay B: T-Rex 293 cells, HA-B-RAF_G466V, 96 well format. Type of test: cell-based. Particulars: T-Rex 293 HA-B-RAF_G466V cells, 24 hours, Examples 1-82. On the procedure:
B. T-Rex 293 Cells (96 Well Format)
(§1) T-Rex 293 cells were purchased from Invitrogen (#R71007), and stably transfected with a pcDNA4/TO_HA-B-RAF_G466V construct, using 400 ug Zeocin for selection. G466V cells are plated in ulbecco's Modified Eagle Medium (DMEM; Gibco #11965118) containing 10% fetal bovine serum (FBS; Gibco #16000044) and 0.75 ng/mL doxycycline (Selleckchem #4163) at a density of 5,000 cells/well in 50 μl on poly-D-lysine (PDL) coated, black clear bottom 96-well plates (Corning #354640) and incubated for 24 hours at 37° C. with 5% CO2. The following day 50 ul of tested compound was added at 2× concentration in DMEM with a final concentration ranging from 30 nM to 3 pM in 0.1% dimethylsulfoxide (DMSO), and incubated for 24 hours at 37° C. with 5% CO2. At the end of the experimental treatment, the media was flicked off and cells washed once with phosphate-buffered saline (PBS)++(PBS with CaCl and MgCl) and gently replacing with 200 μl PBS++ per well. The PBS++ was removed and 50 uL 4% paraformaldehyde (PFA; EMS #15710) in PBS++ was added, and incubate at room temperature for 15 minutes. Cells were washed once with PBS++ and 50 uL 0.1% Triton X-100 (Fisher #BP151-500) in PBS++ was added. Plate was incubate for 5 minutes at room temperature. Cells were was once with PBS++. Cells were blocked with 100 uL Licor blocking buffer (Licor #927-50000) for 1 hour at room temperature. Next, 50 uL of HA antibody (CST #3724) at 1:1000 in Licor blocking buffer was added, and the plate icubate overnight at 4° C. The plates were parafilmed to prevent evaporation. Plate was washed three times with 200 uL PBS++. Fifty microliters of HCS secondary antibody solution [1:1000 Hoechst (Invitrogen #H3570), 1:1000 phalloidin (Invitrogen #A22287) and 1:5000 Alexa fluor (Invitrogen #A11008)] was added and incubated for 1 hour. Plate was wash three times with 200 uL PBS++, and imaged on a high content reader (ImageXpress Micro XLS, Molecular Devices).
(§2) The concentration of an exemplary compound that leads to half maximal degradation (DC50) as well as the maximum degradation observed (Dmax, conventionally expressed as a percentage of control) is shown below in Table 2.

A further test addresses T2, B-RAF V600E (Homo sapiens, UniProt P15056, V600E).
T2 construct: expressed in transfected cells; host or cells: T-Rex 293 cells (Invitrogen #R71007)
Put plainly: Target protein degradation, assay A: T-Rex 293 cells, HA-B-RAF_V600E, 96 well format. Particulars: T-Rex 293 HA-B-RAF_V600E cells, 24 hours, Examples 1-82. Type of test: cell-based. On the procedure:
A. T-Rex 293 Cells (96 well format)
as §1, with “pcDNA4/TO_HA-B-RAF_V600E” for “pcDNA4/TO_HA-B-RAF_G466V”, “V600e” for “G466V”, “1” for “0.75”, “1 μM to 0.1” for “30”, “nM” for “nM to 3 pM”
as §2

Each structure is given as a SMILES string.

T1 sequence (P15056 whole entry G466V): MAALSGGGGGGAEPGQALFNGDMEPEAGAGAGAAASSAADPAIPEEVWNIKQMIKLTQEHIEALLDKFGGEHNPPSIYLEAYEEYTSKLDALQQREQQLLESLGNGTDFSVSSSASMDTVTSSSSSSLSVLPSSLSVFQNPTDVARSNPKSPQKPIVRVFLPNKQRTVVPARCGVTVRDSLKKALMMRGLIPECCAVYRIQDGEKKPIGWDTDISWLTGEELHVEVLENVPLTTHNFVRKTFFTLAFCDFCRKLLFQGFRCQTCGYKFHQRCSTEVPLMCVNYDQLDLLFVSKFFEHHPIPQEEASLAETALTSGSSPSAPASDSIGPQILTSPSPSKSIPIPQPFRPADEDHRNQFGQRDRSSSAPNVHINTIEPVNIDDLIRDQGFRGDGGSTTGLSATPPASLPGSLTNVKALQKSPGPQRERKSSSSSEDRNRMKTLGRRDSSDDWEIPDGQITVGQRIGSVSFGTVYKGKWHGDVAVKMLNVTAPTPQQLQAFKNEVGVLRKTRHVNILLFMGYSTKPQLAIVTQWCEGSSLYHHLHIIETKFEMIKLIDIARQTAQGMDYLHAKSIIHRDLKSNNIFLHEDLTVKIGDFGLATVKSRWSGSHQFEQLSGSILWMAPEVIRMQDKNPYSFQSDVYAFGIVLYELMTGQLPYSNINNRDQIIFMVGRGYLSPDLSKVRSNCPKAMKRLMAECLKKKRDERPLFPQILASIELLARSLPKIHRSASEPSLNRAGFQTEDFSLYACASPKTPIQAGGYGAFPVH
T2 sequence (P15056 whole entry V600E): as the sequence (P15056 whole entry G466V) above, with V466G, V600E counted along it

By DC50 is commonly meant the midpoint of the concentration-degradation curve. A lower DC50 goes with a more potent degrader. By Dmax is commonly meant the largest share of the target that was removed. With `N#Cc1c(NS(=O)(=O)N2CC[C@@H](F)C2)ccc(F)c1Oc1ccc2ncn(-c3ccc(N4CCN(CC5CCN(c6ccc([C@H]7CCC(=O)NC7=O)cc6F)CC5)CC4)cc3)c(=O)c2c1` (single isomer, unassigned) [Example 80, (3R)—N-(2-cyano-3-{[3-(4-{4-[(1-{4-[(3R*)-2,6-dioxopiperidin-3-yl]-2-fluorophenyl}piperidin-4-yl)methyl]piperazin-1-yl}phenyl)-4-oxo-3,4-dihydroquinazolin-6-yl]oxy}-4-fluorophenyl)-3-fluoropyrrolidine-1-sulfonamide], the DC50 at B-RAF G466V was in the range of 1 to 10 nM; at B-RAF V600E, 50 to 500 nM. Further, the Dmax on B-RAF G466V and at B-RAF V600E was 35 to 70% throughout.
For the compound `N#Cc1c(NS(=O)(=O)N2CC[C@@H](F)C2)ccc(F)c1Oc1ccc2ncn(-c3ccc(N4CCN(CC5CCN(c6ccc7c(c6)CN(C6CCC(=O)NC6=O)C7=O)CC5)CC4)cc3)c(=O)c2c1` (stereo partly drawn) [Example 1, (3R)—N-[2-cyano-3-[3-[4-[4-[[1-[2-(2,6-dioxo-3-piperidyl)-1-oxo-isoindolin-5-yl]-4-piperidyl]methyl]piperazin-1-yl]phenyl]-4-oxo-quinazolin-6-yl]oxy-4-fluoro-phenyl]-3-fluoro-pyrrolidine-1-sulfonamide], the DC50 at B-RAF G466V is at most 1 nM; on B-RAF V600E, 5 to 50 nM. The Dmax at B-RAF G466V and at B-RAF V600E was 35 to 70% each time.
On B-RAF G466V, `N#Cc1c(NS(=O)(=O)N2CC[C@@H](F)C2)ccc(F)c1Oc1ccc2ncn(-c3ccc(N4CCN(CC5CN(c6ccc7c(c6)CN(C6CCC(=O)NC6=O)C7=O)C5)CC4)cc3)c(=O)c2c1` (stereo partly drawn) [Example 2, (3R)—N-{2-cyano-3-[(3-{4-[4-({1-[2-(2,6-dioxopiperidin-3-yl)-1-oxo-2,3-dihydro-1H-isoindol-5-yl]azetidin-3-yl}methyl)piperazin-1-yl]phenyl}-4-oxo-3,4-dihydroquinazolin-6-yl)oxy]-4-fluorophenyl}-3-fluoropyrrolidine-1-sulfonamide] had a 50% degradation concentration (DC50) of at most 1 nM and a Dmax of 35 to 70%. At B-RAF V600E, the DC50 is 50 to 500 nM and the Dmax is at most 35%.
Consider `N#Cc1c(NS(=O)(=O)N2CC[C@@H](F)C2)ccc(F)c1Oc1ccc2ncn(-c3ccc(N4CCN(CC5CCN(c6ccc7c(c6)CN(C6CCC(=O)NC6=O)C7=O)CC5)CC4)nc3)c(=O)c2c1` (stereo partly drawn) [Example 3, (3R)—N-[2-cyano-3-[3-[6-[4-[[1-[2-(2,6-dioxo-3-piperidyl)-1-oxo-isoindolin-5-yl]-4-piperidyl]methyl]piperazin-1-yl]-3-pyridyl]-4-oxo-quinazolin-6-yl]oxy-4-fluoro-phenyl]-3-fluoro-pyrrolidine-1-sulfonamide], for which the values for the DC50 at B-RAF G466V and at B-RAF V600E were 1 to 10 nM and 50 to 500 nM, respectively. Further, the Dmax was 35 to 70% at B-RAF G466V and at most 35% at B-RAF V600E.
At B-RAF V600E, `N#Cc1c(NS(=O)(=O)N2CC[C@@H](F)C2)ccc(F)c1Oc1ccc2ncn(-c3ccc(N4CCC(CN5CCC(c6ccc7c(c6)CN([C@H]6CCC(=O)NC6=O)C7=O)CC5)CC4)cc3)c(=O)c2c1` [Example 81, (3R)—N-(2-cyano-3-{[3-(4-{4-[(4-{2-[(3S)-2,6-dioxopiperidin-3-yl]-1-oxo-2,3-dihydro-1H-isoindol-5-yl}piperidin-1-yl)methyl]piperidin-1-yl}phenyl)-4-oxo-3,4-dihydroquinazolin-6-yl]oxy}-4-fluorophenyl)-3-fluoropyrrolidine-1-sulfonamide] came in with a DC50 of 50 to 500 nM and a Dmax of 35 to 70%.
